In patent US9150603B2, “2′-cyano substituted nucleoside derivatives and methods of use thereof useful for the treatment of viral diseases” (priority 2011, dated 2015):

Tests used:
[1] = test system: replicon cells (1b-Con1); test: Replicon activity assay (1b-Con1 replicon cells, real-time RT-PCR); type: cell-based, HCV; conditions: three days post-dosing
[2] = test system: replicon cells; test: Cytotoxicity in replicon cells (MTS assay); conditions: CC50, MTS assay, three days post dosing
[3] = test system: HCV replicon cells (1b); test: Cell-based HCV replicon assay (replicon RNA level by Taqman real time PCR); conditions: HCV 1b replicon, cells harvested on day 3
Procedure: To measure cell-based anti-HCV activity of selected compounds of the present invention, replicon cells were seeded at 5000 cells/well in 96-well collagen I-coated Nunc plates in the presence of the test compound. […]. Cells were harvested on day 3 by the addition of 1× cell lysis buffer (Ambion cat #8721). The replicon RNA level was measured using real time PCR (Taqman assay). The amplicon was located in 5B. The PCR primers were: 5B.2F, […] (SEQ ID. NO. 1); 5B.2R, […] (SEQ ID. NO. 2); the probe sequence was FAM-labeled […] (SEQ ID. NO. 3). GAPDH RNA was used as endogenous control and was amplified in the same reaction as NSSB (multiplex PCR) using primers and VIC-labeled probe recommended by the manufacturer (PE Applied Biosystem). The real-time RT-PCR reactions were run on ABI PRISM 7900HT Sequence Detection System using the following program: 48° C. for 30 minutes, 95° C. for 10 minutes, 40 cycles of 95° C. for 15 sec, 60° C. for 1 minute. The ACT values (CT5B−CTGAPDH) were plotted against the concentration of test compound and fitted to the sigmoid dose-response model using XLfit4 (MDL). […]; Alternatively, to quantitate the absolute amount of replicon RNA, a standard curve was established by including serially diluted T7 transcripts of replicon RNA in the Taqman assay. All Taqman reagents were from […] Applied Biosystems. Such an assay procedure was described in detail in e.g. Malcolm et al., Antimicrobial Agents and Chemotherapy 50: 1013-1020 (2006).

[4] = molecular target: T1, HCV NS5B RNA-dependent RNA polymerase (1b-BKΔ55) (Hepatitis C virus genotype 1b, UniProt P26663); test: Inhibition of HCV NS5B polymerase by nucleoside triphosphate analogs (radiolabeled nucleotide incorporation assay); type: biochemical
T1 construct: 5 nM NS5B (1b-BKΔ55) enzyme
T1 sequence (P26663 2420-2955 limits assumed, stated change not applied): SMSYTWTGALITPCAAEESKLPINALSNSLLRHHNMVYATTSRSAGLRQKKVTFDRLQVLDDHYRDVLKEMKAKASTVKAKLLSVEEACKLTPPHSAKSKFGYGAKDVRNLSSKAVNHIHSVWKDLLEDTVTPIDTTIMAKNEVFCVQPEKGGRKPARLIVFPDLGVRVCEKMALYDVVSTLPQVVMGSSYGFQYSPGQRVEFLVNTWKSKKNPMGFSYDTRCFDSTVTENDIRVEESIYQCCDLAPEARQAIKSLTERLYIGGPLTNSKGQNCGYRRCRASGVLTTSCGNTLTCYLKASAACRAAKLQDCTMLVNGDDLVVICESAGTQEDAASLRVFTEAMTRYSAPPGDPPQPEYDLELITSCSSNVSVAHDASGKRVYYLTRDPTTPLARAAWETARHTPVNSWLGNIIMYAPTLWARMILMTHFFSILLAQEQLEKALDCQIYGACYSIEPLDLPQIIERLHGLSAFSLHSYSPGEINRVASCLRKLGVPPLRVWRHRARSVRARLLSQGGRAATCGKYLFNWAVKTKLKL

## C[C@H](NP(=O)(OC[C@H]1O[C@@H](n2ccc(=O)[nH]c2=O)[C@](C)(C#N)[C@@H]1O)Oc1ccccc1)C(=O)O[C@H](C)c1ccccc1 (some centres unmarked)
[1]; Hepatitis C virus, 72 h
  EC50: 34 µM
[2]
  Cytotoxicity: >100 µM

## CC(C)OC(=O)[C@H](C)NP(=O)(OC[C@H]1O[C@@H](n2ccc(=O)[nH]c2=O)[C@](C)(C#N)[C@@H]1O)Oc1ccccc1 (some centres unmarked)
[1]; Hepatitis C virus, 72 h
  EC50: 8.3 µM
[2]
  Cytotoxicity: >100 µM

## C[C@H](NP(=O)(OC[C@H]1O[C@@H](n2ccc(=O)[nH]c2=O)[C@](C)(C#N)[C@@H]1O)Oc1ccccc1)C(=O)OC1CCCCC1 (some centres unmarked)
[1]; Hepatitis C virus, 72 h
  EC50: 2.4 µM

## CCCOC(=O)[C@H](C)NP(=O)(OC[C@H]1O[C@@H](n2cnc3c(OC)nc(N)nc32)[C@](C)(C#N)[C@@H]1O)Oc1ccccc1 (some centres unmarked)
[1]; Hepatitis C virus, 72 h
  EC50: 2.1 µM

## COc1nc(N)nc2c1ncn2[C@@H]1O[C@H](COP(=O)(N[C@@H](C)C(=O)OC(C)C)Oc2ccccc2)[C@@H](O)[C@@]1(C)C#N (some centres unmarked)
[1]; Hepatitis C virus, 72 h
  EC50: 2.2 µM
[2]
  Cytotoxicity: >100 µM

## COc1nc(N)nc2c1ncn2[C@@H]1O[C@H](COP(=O)(N[C@@H](C)C(=O)OC(C)C)Oc2ccccc2OC(C)=O)[C@@H](O)[C@@]1(C)C#N (some centres unmarked)
[1]; Hepatitis C virus, 72 h
  EC50: 8.9 µM
[2]
  Cytotoxicity: 15 µM

## CC(C)OP1(=O)OC[C@H]2O[C@@H](n3ccc(=O)[nH]c3=O)[C@](C)(C#N)[C@@H]2O1 (some centres unmarked)
[1]; Hepatitis C virus, 72 h
  EC50: 1.3 µM
[2]
  Cytotoxicity: >100 µM

## CC(C)COC(=O)[C@H](C)NP(=O)(OC[C@H]1O[C@@H](n2ccc(N)nc2=O)[C@](C)(C#N)[C@@H]1O)Oc1ccccc1 (some centres unmarked)
[1]; Hepatitis C virus, 72 h
  EC50: 0.4 µM
[2]
  Cytotoxicity: 92 µM

## CCC(NP(=O)(OC[C@H]1O[C@@H](n2cnc3c(OC)nc(N)nc32)[C@](C)(C#N)[C@@H]1O)Oc1ccccc1)C(=O)OC(C)C (some centres unmarked)
[1]; Hepatitis C virus, 72 h
  EC50: 2.2 µM
[2]
  Cytotoxicity: >100 µM

## CCOc1nc(N)nc2c1ncn2[C@@H]1O[C@@H]2COP(=O)(OC3CCC3)O[C@H]2[C@@]1(C)C#N (some centres unmarked)
[1]; Hepatitis C virus, 72 h
  EC50: 1.2 µM
[2]
  Cytotoxicity: >100 µM

## CC(=O)Nc1ccn([C@@H]2O[C@H](CO)[C@@H](O)[C@@]2(C)C#N)c(=O)n1 [Compound 1]
[3]; Hepatitis C virus, 72 h
  EC50: 14 µM

## C[C@@]1(C#N)[C@H](O)[C@@H](CO)O[C@H]1n1ccc(=O)[nH]c1=O [Compound 2, 1-[(2R,3R,4S,5R)-3-cyano-4-hydroxy-5-(hydroxymethyl)-3-methyloxolan-2-yl]-1,2,3,4-tetrahydropyrimidine-2,4-dione]
[3]
  EC50: 12.6 µM

## C[C@@]1(C#N)[C@H](O)[C@@H](CO)O[C@H]1n1ccc(=O)[nH]c1=O [Compound 3]
[3]
  EC50: > 66 µM

## CCOc1nc(NC(C)=O)nc2c1ncn2[C@@H]1O[C@H](CO)[C@@H](O)[C@@]1(C)C#N [Compound 4]
[3]; Hepatitis C virus, 72 h
  EC50: 100 µM

## CCOc1nc(N)nc2c1ncn2[C@@H]1O[C@H](CO)[C@@H](O)[C@@]1(C)C#N [Compound 5]
[3]; Hepatitis C virus, 72 h
  EC50: > 100 µM

## CCOc1nc(N)nc2c1ncn2[C@@H]1O[C@H](COP(=O)(N[C@@H](C)C(=O)OC)Oc2ccccc2)[C@@H](O)[C@@]1(C)C#N (some centres unmarked) [Compound 6]
[3]; Hepatitis C virus, 72 h
  EC50: 1.4 µM

## CCCCOC(=O)[C@H](C)NP(=O)(OC[C@H]1O[C@@H](n2cnc3c(OCC)nc(N)nc32)[C@](C)(C#N)[C@@H]1O)Oc1cccc2ccccc12 (some centres unmarked) [Compound 7]
[3]; Hepatitis C virus, 72 h
  EC50: 1 µM

## CCOC(=O)[C@H](C)NP(=O)(OC[C@H]1O[C@@H](n2cnc3c(OCC)nc(N)nc32)[C@](C)(C#N)[C@@H]1O)Oc1ccccc1 (some centres unmarked) [Compound 8]
[3]; Hepatitis C virus, 72 h
  EC50: 11.7 µM

## CCOc1nc(N)nc2c1ncn2[C@@H]1O[C@H](COP(=O)(N[C@@H](C)C(=O)OCC(C)(C)C)Oc2ccccc2)[C@@H](O)[C@@]1(C)C#N (some centres unmarked) [Compound 9]
[3]; Hepatitis C virus, 72 h
  EC50: 0.7 µM

## CCOc1nc(N)nc2c1ncn2[C@@H]1O[C@H](COP(=O)(N[C@@H](C)C(=O)OC(C)C)Oc2ccccc2)[C@@H](O)[C@@]1(C)C#N (some centres unmarked) [Compound 10]
[3]; Hepatitis C virus, 72 h
  EC50: 15 µM

## CCOC(=O)[C@H](C)NP(=O)(OC[C@H]1O[C@@H](n2cnc3c(OCC)nc(N)nc32)[C@](C)(C#N)[C@@H]1O)Oc1ccc(F)cc1 (some centres unmarked) [Compound 11]
[3]; Hepatitis C virus, 72 h
  EC50: 17 µM

## CCOC(=O)[C@H](C)NP(=O)(OC[C@H]1O[C@@H](n2cnc3c(OCC)nc(N)nc32)[C@](C)(C#N)[C@@H]1O)Oc1ccc(Cl)cc1 (some centres unmarked) [Compound 12]
[3]; Hepatitis C virus, 72 h
  EC50: 1.7 µM

## CCCCOC(=O)[C@H](C)NP(=O)(OC[C@H]1O[C@@H](n2cnc3c(OCC)nc(N)nc32)[C@](C)(C#N)[C@@H]1O)Oc1ccccc1 (some centres unmarked) [Compound 13]
[3]; Hepatitis C virus, 72 h
  EC50: 1.5 µM

## COC(=O)[C@H](C)NP(=O)(OC[C@H]1O[C@@H](n2ccc(=O)[nH]c2=O)[C@](C)(C#N)[C@@H]1O)Oc1ccccc1 (some centres unmarked) [Compound 14]
[3]; Hepatitis C virus, 72 h
  EC50: 11 µM

## C[C@H](NP(=O)(OC[C@H]1O[C@@H](n2ccc(=O)[nH]c2=O)[C@](C)(C#N)[C@@H]1O)Oc1ccccc1)C(=O)OCC(C)(C)C (some centres unmarked) [Compound 15]
[3]; Hepatitis C virus, 72 h
  EC50: 5 µM

## CCOC(=O)[C@H](C)NP(=O)(OC[C@H]1O[C@@H](n2ccc(=O)[nH]c2=O)[C@](C)(C#N)[C@@H]1O)Oc1ccccc1 (some centres unmarked) [Compound 16]
[3]; Hepatitis C virus, 72 h
  EC50: 51 µM

## COC(=O)[C@H](C)NP(=O)(OC[C@H]1O[C@@H](n2ccc(=O)[nH]c2=O)[C@](C)(C#N)[C@@H]1O)Oc1ccc(Cl)cc1 (some centres unmarked) [Compound 17]
[3]; Hepatitis C virus, 72 h
  EC50: 13 µM

## CCCCOC(=O)[C@H](C)NP(=O)(OC[C@H]1O[C@@H](n2ccc(=O)[nH]c2=O)[C@](C)(C#N)[C@@H]1O)Oc1cccc2ccccc12 (some centres unmarked) [Compound 18]
[3]; Hepatitis C virus, 72 h
  EC50: 1 µM

## CCOC(=O)[C@H](C)NP(=O)(OC[C@H]1O[C@@H](n2ccc(=O)[nH]c2=O)[C@](C)(C#N)[C@@H]1O)Oc1ccc(Cl)cc1 (some centres unmarked) [Compound 19]
[3]; Hepatitis C virus, 72 h
  EC50: 15 µM

## CCCCOC(=O)[C@H](C)NP(=O)(OC[C@H]1O[C@@H](n2ccc(N)nc2=O)[C@](C)(C#N)[C@@H]1O)Oc1cccc2ccccc12 (some centres unmarked) [Compound 20]
[3]; Hepatitis C virus, 72 h
  EC50: 16 µM

## COC(=O)[C@H](C)NP(=O)(OC[C@H]1O[C@@H](n2ccc(N)nc2=O)[C@](C)(C#N)[C@@H]1O)Oc1ccccc1 (some centres unmarked) [Compound 21]
[3]; Hepatitis C virus, 72 h
  EC50: 25 µM

## C[C@H](NP(=O)(OC[C@H]1O[C@@H](n2ccc(N)nc2=O)[C@](C)(C#N)[C@@H]1O)Oc1ccccc1)C(=O)OCC(C)(C)C (some centres unmarked) [Compound 22]
[3]; Hepatitis C virus, 72 h
  EC50: 18 µM

## CC(C)OP1(=O)OC[C@H]2O[C@@H](n3ccc(N)nc3=O)[C@](C)(C#N)[C@@H]2O1 (some centres unmarked) [Compound 23]
[3]; Hepatitis C virus, 72 h
  EC50: 6.7 µM

## CC(C)OP1(=O)OC[C@H]2O[C@@H](n3ccc(N)nc3=O)[C@](C)(C#N)[C@@H]2O1 (some centres unmarked) [Compound 24]
[3]
  EC50: 7.9 µM

## CCOP1(=O)OC[C@H]2O[C@@H](n3ccc(N)nc3=O)[C@](C)(C#N)[C@@H]2O1 (some centres unmarked) [Compound 25]
[3]; Hepatitis C virus, 72 h
  EC50: > 100 µM

## C[C@@]1(C#N)[C@@H]2OP(=O)(Oc3ccccc3)OC[C@H]2O[C@H]1n1ccc(N)nc1=O (some centres unmarked) [Compound 26]
[3]; Hepatitis C virus, 72 h
  EC50: 62 µM

## C[C@@]1(C#N)[C@@H]2OP(=O)(OC3CCC3)OC[C@H]2O[C@H]1n1ccc(N)nc1=O (some centres unmarked) [Compound 27]
[3]; Hepatitis C virus, 72 h
  EC50: > 100 µM

## CCOc1nc(N)nc2c1ncn2[C@@H]1O[C@@H]2COP(=O)(OC(C)C)O[C@H]2[C@@]1(C)C#N (some centres unmarked) [Compound 28]
[3]; Hepatitis C virus, 72 h
  EC50: 2.7 µM

## C[C@@]1(C#N)[C@H](O)[C@@H](COP(=O)(O)OP(=O)(O)OP(=O)(O)O)O[C@H]1n1ccc(N)nc1=O [Compound 29]
[4]
  IC50: 0.5 µM

## CC(C)OC(=O)[C@H](C)NP(=O)(OC[C@H]1O[C@@H](n2ccc(=O)[nH]c2=O)[C@](C)(C#N)[C@@H]1O)Oc1ccccc1Cl (some centres unmarked) [Compound 30]
[3]; Hepatitis C virus, 72 h
  EC50: 571 µM

## CC(C)COC(=O)[C@H](C)NP(=O)(OC[C@H]1O[C@@H](n2ccc(=O)[nH]c2=O)[C@](C)(C#N)[C@@H]1O)Oc1ccccc1 (some centres unmarked) [drawing 352]
[1]
  EC50: 1.4 µM
[2]
  Cytotoxicity: >100 µM

## CCCCOC(=O)[C@H](C)NP(=O)(OC[C@H]1O[C@@H](n2ccc(=O)[nH]c2=O)[C@](C)(C#N)[C@@H]1O)Oc1cccc2ccccc12 (some centres unmarked) [drawing 354]
[1]; Hepatitis C virus, 72 h
  EC50: 2.7 µM
[2]
  Cytotoxicity: >100 µM

## CC(C)OC(=O)[C@H](C)NP(=O)(OC[C@H]1O[C@@H](n2ccc(N)nc2=O)[C@](C)(C#N)[C@@H]1O)Oc1ccccc1 (some centres unmarked) [drawing 359]
[1]; Hepatitis C virus, 72 h
  EC50: 5.2 µM
[2]
  Cytotoxicity: >100 µM

## CC(C)COC(=O)[C@H](C)NP(=O)(OC[C@H]1O[C@@H](n2ccc(=O)[nH]c2=O)[C@](C)(C#N)[C@@H]1O)Oc1ccccc1 (some centres unmarked) [drawing 360]
[1]; Hepatitis C virus, 72 h
  EC50: 1.3 µM
[2]
  Cytotoxicity: >100 µM
